In US20090076098A1, “METHODS, KITS, AND COMPOUNDS FOR DETERMINING RESPONSIVENESS TO TREATMENT OF A PATHOLOGICAL DISORDER BY EPOTHILONES” (priority 2007, published 2009):
Several values for one entry are separate records, joined by “and”; a condition that tells them apart may be missing. Equal values may be shown once.

Assays:
[1] = test system: non small cell lung cancer (NSCLC) xenograft models; type: in vivo; conditions: for percentage of tumors with a T/C ratio<20%: share of models; for percentage of responses overall (T/C): share of models responding
Procedure: FIG. 1: Preclinical lung cancer study design: 22 non small cell lung cancer (NSCLC) xenograft models were derived from patients primary tumors directly after surgery; at low murine passages response to Sagopilone and standard chemotherapy was assessed and samples grouped into responders and non-responders. RNA from untreated control tumors was subjected to Affymetrix gene expression analysis for discrimination of gene expression levels at baseline with tumor response.
Lung cancer xenograft models were established by subcutaneously transplanting fresh tumor material from NSCLC patients into nude mice. Tumor types included pleomorphic carcinoma (7187, 7336), squamous cell carcinoma (7126, 7177, 7298, 7343, 7462, 7433, 7530), dedifferentiated carcinoma (7668), adenocarcinoma (7064, 7198, 7406, 7387, 7466, 7612) and small cell lung cancer ([…]).
Antitumor activity was determined using either the reduction in tumor area in treated versus control mice (T/C ratio), or the mean change in absolute tumor volume compared with volume at baseline (day of first treatment).
1° lung cancer biopsies obtained from patients with established cancer were transplanted into nude mice. Tumor growth curves for the treatment with Etoposide, Carboplatin, Gemcitabine, Taxol, Navelbine, Cetuximab, Erlotinib und Sagopilone were generated. Mutation status of p53 was analyzed in the models according to methods known in the art. Fourteen Sagopilone responders and eight Sagopilone non-responders were characterized in long-term experiments. A PBS control group was treated with PBS or Sagopilone for 24 hrs before sacrifice. RNA for Sagopilone responder and non-responder models were isolated according to methods known in the art and were hybridized onto arrays according to the manufacturer's instructions.

[2] = test system: A549 NSCLC cells; assay: A549 NSCLC xenograft in nude mice: Sagopilone combined with acetazolamide; type: in vivo; conditions: acetazolamide 40 mg/day p.o. with Sagopilone 6 or 8 mg/kg, FIG. 11
Procedure: FIG. 11: A549 NSCLC cells were xenotransplanted into nude mice. Mice were treated starting on day 7 after tumor transplantation as indicated: Sagopilone 6 mg/kg or 8 mg/kg were given on days 17, 32 and 45 after transplantation as indicated by arrows, acetazolamide 40 mg/day p.o. was given either daily or twice a day for five days starting on the day of Sagopilone administration (2 h before and 2 h after application of Sagopilone).

[3] = 22 NSCLC xenograft models, FIG. 4, count

## N.N.O=C([O-])C1(C(=O)[O-])CCC1.[Pt+2] [carboplatin]
[1]; lung cancer xenografts
  percentage of tumors with a T/C ratio<20%: 25.0%
  percentage of responses overall (T/C): 68.8%

## Nc1ccn([C@@H]2O[C@H](CO)[C@@H](O)C2(F)F)c(=O)n1 [gemcitabine]
[1]; lung cancer xenografts, b271, FIGS. 2a and 2b
  response (percentage of models), criteria not given: 61.5%
[1]; lung cancer xenografts
  percentage of tumors with a T/C ratio<20%: 47.0%
  percentage of responses overall (T/C): 80.0%
[1]; mouse, in vivo
  models in which at least 2 animals per group (n=6) could not be evaluated due to toxicity: seven
  toxicity in xenograft-bearing mice: marked toxicity
[1]; nude, mouse, in vivo
  models in which toxicity prevented evaluation of any mice: 2

## C=CC[C@H]1C(=O)C(C)(C)[C@@H](O)CC(=O)O[C@H](c2ccc3sc(C)nc3c2)C[C@@H]2O[C@]2(C)CCC[C@H](C)[C@@H]1O [Sagopilone, (1S,3S,7S,10R,11S,12S,16R)-7,11-Dihydroxy-10-allyl-8,8,12,16-tetramethyl-3-(2-methyl-benzothiazol-5-yl)-4,17-dioxa-bicyclo[14.1.0]heptadecane-5,9-dione]
[1]; [3]
  samples with stable disease: three
  samples with tumor regression: Eleven
[1]; 22 NSCLC xenograft models, count of models
  models being non-responders (tumor progression), clinical criteria: eight
[1]; 22 lung cancer xenografts, tumor volume treated vs control, count of models
  models showing response / tumor growth inhibition by T/C value: 22 and 22 of 22
[1]; lung cancer xenografts, count of models
  number of NSCLC with a T/C ratio<20%: 12
[1]; lung cancer xenografts
  percentage of tumors with a T/C ratio<20%: 76.5%
[1]; model Lu7198, FIG. 3B
  response of xenograft model Lu7198: tumor progression
[1]; model Lu7298, FIG. 3A
  response of xenograft model Lu7298: tumor shrinkage
[1]; vs carboplatin, paclitaxel, gemcitabine, etoposide, vinorelbine, in words
  activity and tolerability compared with commonly used cytotoxic agents in NSCLC: superior activity and tolerability

## CC(=O)O[C@H]1C(=O)[C@@]2(C)[C@H]([C@H](OC(=O)c3ccccc3)[C@]3(O)C[C@H](OC(=O)[C@H](O)[C@@H](NC(=O)c4ccccc4)c4ccccc4)C(C)=C1C3(C)C)[C@]1(OC(C)=O)CO[C@@H]1C[C@@H]2O [Paclitaxel]
[1]; lung cancer xenografts
  percentage of tumors with a T/C ratio<20%: 56.2%
  percentage of responses overall (T/C): 81.2%

## CC(=O)Nc1nnc(S(N)(=O)=O)s1 [acetazolamide]
[2]
  effect of combination with an epothilone on tumor response: sensitization
